Measurements: US20030212115A1, “Remedies for inflammatory bowel diseases” (priority 2000, published 2003)

How the values were obtained:
acetate-caused colitis = test: Acetate-caused colitis model; assay type: in vivo, Syrian strain male hamster; conditions: for area of ulcer: three times (18 h and 1 h before, 6 h after cause of colitis), anatomized 24 hours later, FIG. 1; for amount of the haemoglobin (index of the enteric hemorrhage): three times, washing supernatant of large intestine, 24 hours later, FIG. 2
Procedure: (1) Acetate-Caused Colitis Model.
(§1) After 1% aqueous acetic acid (10 ml/kg) is injected from anus of Syrian strain male hamster (7 weeks of ages) into large intestine with a flexible, oral sonde for rat, colitis was caused by clipping anus for 30 minutes. Distilled water was similarly injected into a normal group.
0.5% CMC (10 ml/kg) was orally administered to the normal group and the control group, and 10, 30 and 100 mg/10 ml/kg of a test drug suspended into 0.5% CMC were orally administered to the group administrated test drug three times in total, 18 hours and 1 hour before cause of colitis and 6 hours after cause, respectively.
They were anatomized 24 hours later, and large intestines of 7 cm length were sampled from anus. Then, these intestinals were incised, and these enterics were washed by physiological salt solution (5 ml). they were taken a picture of incised large intestines, and ulcer area (cm^2) was calculated by the image analysis. Moreover, the washing supernatant of large intestine was supplied for the measurement of the amount of the haemoglobin (index of the amount of the enteric hemorrhage).
As a test drug, 2-[5-amino-6-oxo-2-phenyl-1,6-dihydro-1-pyrimidinyl]-N-[1-[[5-(t-butyl)-1,3,4-oxadiazole-2-yl]carbonyl]-2-methylpropyl]acetamide (Compound 34) was used. FIG. 1 and FIG. 2 show the results.

[1] = tested on: picrylsulfonic acid (TNBS)-caused colitis; test: Picrylsulfonic acid (TNBS)-caused colitis model; assay type: in vivo, Syrian strain male hamster; conditions: for area of the ulcer: once a day before cause, then twice a day, anatomized 5 days later, FIG. 3; for amount of the haemoglobin (index of the enteric hemorrhage): supernatant of washing of large intestine, 5 days later, FIG. 4
Procedure: (2) Picrylsulfonic Acid (TNBS)-Caused Colitis Model.
as §1, with “90 mg/ml of TNBS/isotonic solution (with 15 vol % ethanol) liquor (0.1 ml/body)” for “1% aqueous acetic acid (10 ml/kg)”
0.5% CMC (10 ml/kg) was orally administered to the normal group and the control group, and 25, 50 and 100 mg/10 ml/kg doses of a test drug suspended into 0.5% CMC were orally administered to the group administrated test drug once a day before cause of colitis and twice a day until the day of cause before anatomy, respectively.
They were anatomized 5 days later, and large intestines of 3 cm length were sampled from anus. Then, these intestinals were incised, and these enterics were washed by physiological salt solution (2 ml). they were taken a picture of incised large intestines, and ulcer area (cm^2) was calculated by the image analysis. Moreover, the supernatant of washing of large intestine was supplied to the measurement of the amount of the haemoglobin (index of the amount of the enteric hemorrhage).
As a test drug, compound 34 was used as well as example (1). FIG. 3 and FIG. 4 show the results.

CC(C)C(NC(=O)Cn1c(-c2ccccc2)ncc(N)c1=O)C(=O)c1nnc(C(C)(C)C)o1 (centres unmarked) [compound 34, 2-[5-amino-6-oxo-2-phenyl-1,6-dihydro-1-pyrimidinyl]-N-[1-[[5-(t-butyl)-1,3,4-oxadiazole-2-yl]carbonyl]-2-methylpropyl]acetamide]
intentionally suppressed: area of ulcer (acetate-caused colitis; 30 mg/kg orally) | amount of the haemoglobin (index of the enteric hemorrhage) (acetate-caused colitis; 30 mg/kg orally) | area of ulcer (acetate-caused colitis; 100 mg/kg orally) | amount of the haemoglobin (index of the enteric hemorrhage) (acetate-caused colitis; 100 mg/kg orally) | area of the ulcer ([1]; 50 mg/kg orally) | amount of the haemoglobin (index of the enteric hemorrhage) ([1]; 50 mg/kg orally) | area of the ulcer ([1]; 100 mg/kg orally) | amount of the haemoglobin (index of the enteric hemorrhage) ([1]; 100 mg/kg orally)
